The data set in a line: physchem. The following applies: for solubility at 4 h: 50% aqueous hpcd.

≈ marks a conversion by molar mass, not a printed value.

As usually defined, the solubility is the concentration that dissolves in the medium under given conditions.

Method: After equilibration in a 30.0±0.2°C water bath in the dark for up to 72 hours, aliquots of the mixtures were filtered through 0.45 Mm membrane filters, diluted and the drug concentration determined by HPLC or UV methods.

The molecule `O=C(O)CCCc1ccc(N(CCCl)CCCl)cc1` [Chlorambucil] returned a solubility at 4 h of approximately 30 mg/mL (≈ 98.6 mM). For the setting “1% aqueous hpcd”, this molecule returned a solubility at 3 h of 0.74 mg/mL (≈ 2.43 mM) and a solubility at 84 h of 0.55 mg/mL (≈ 1.81 mM). For the setting “2% aqueous hpcd”, this molecule showed a solubility at 3 h of 1.48 mg/mL (≈ 4.86 mM) and a solubility at 84 h of 0.84 mg/mL (≈ 2.76 mM). Where the note is “3% aqueous hpcd”, this molecule yielded a solubility at 3 h of 2.37 mg/mL (≈ 7.79 mM) and a solubility at 84 h of 0.68 mg/mL (≈ 2.24 mM). For the setting “4% aqueous hpcd”, this molecule had a solubility at 3 h of 3.22 mg/mL (≈ 10.6 mM) and a solubility at 84 h of 1.5 mg/mL (≈ 4.93 mM). Where the note is “5% aqueous hpcd”, this molecule returned a solubility at 3 h of 1.46 mg/mL (≈ 4.8 mM) and a solubility at 84 h of 1.8 mg/mL (≈ 5.92 mM). The amount in solution (7% aqueous hpcd) (solubility at 84 h) came to 3.76 mg/mL (≈ 12.4 mM). Where the note is “10% aqueous hpcd”, this molecule showed a solubility at 3 h of 4.96 mg/mL (≈ 16.3 mM) and a solubility at 84 h of 5.2 mg/mL (≈ 17.1 mM). Under “15% aqueous hpcd”, this molecule gave a solubility at 3 h of 6.36 mg/mL (≈ 20.9 mM) and a solubility at 84 h of 7.6 mg/mL (≈ 25 mM). Where the note is “20% aqueous hpcd”, this molecule displayed a solubility of 13.1 mg/mL (≈ 43 mM), a solubility at 3 h of 8.49 mg/mL (≈ 27.9 mM) and a solubility at 84 h of 13.1 mg/mL (≈ 43 mM). For the setting “25% aqueous hpcd”, this molecule yielded a solubility of 18.4 mg/mL (≈ 60.5 mM), a solubility at 3 h of 8.85 mg/mL (≈ 29.1 mM) and a solubility at 84 h of 18.4 mg/mL (≈ 60.5 mM). For the setting “aqueous 7% hpcd”, this molecule displayed a solubility at 3 h of 2.71 mg/mL (≈ 8.91 mM). Moreover, the solubility (water) came to 0.41 mg/mL (≈ 1.35 mM). Where the note is “water (0% hpcd)”, the solubility at 3 h is 0.01 mg/mL (≈ 0.0329 mM) and the concentration in solution (solubility at 84 h) came to 0.41 mg/mL (≈ 1.35 mM).
`N[C@@H](Cc1ccc(N(CCCl)CCCl)cc1)C(=O)O` [Melphalan] registered a solubility at 4 h of approximately 21.9 mg/mL (≈ 71.8 mM). Further, the solubility (1% aqueous hpcd) amounted to 4.16 mg/mL (≈ 13.6 mM). The concentration in solution (2% aqueous hpcd) (solubility) was 4.3 mg/mL (≈ 14.1 mM). This molecule came in with a solubility (3% aqueous hpcd) of 6.24 mg/mL (≈ 20.4 mM). The solubility (4% aqueous hpcd) is 7.14 mg/mL (≈ 23.4 mM). The molecule also displayed a solubility (5% aqueous hpcd) of 7.2 mg/mL (≈ 23.6 mM). The same molecule registered a solubility (7% aqueous hpcd) of 10.5 mg/mL (≈ 34.4 mM). The molecule also returned a solubility (10% aqueous hpcd) of 13.4 mg/mL (≈ 43.8 mM). In addition, where the note is “15% aqueous hpcd”, the solubility is 17.6 mg/mL (≈ 57.8 mM). Also, under “20% aqueous hpcd”, the concentration in solution (solubility) was 24.8 mg/mL (≈ 81.1 mM). Further, the solubility (25% aqueous hpcd) was determined as 31.4 mg/mL (≈ 103 mM). The molecule also showed a solubility (water) of 1.26 mg/mL (≈ 4.13 mM). Under “water (0% hpcd)”, this molecule registered a solubility of 1.26 mg/mL (≈ 4.13 mM).

The record behind these values is EP0335545B2, “Pharmaceutical formulations for parenteral use” (UNIVERSITY OF FLORIDA, priority 1988, dated 1989).
